From US12227500B2, “Substituted pyrrolo[2,3-b]pyridines for suppressing toxic endoplasmic reticulum stress” (THE TRUSTEES OF COLUMBIA UNIVERSITY IN THE CITY OF NEW YORK, priority 2018, dated 2025) come the findings set out here.

SMILES strings stand for the structures. Read-outs that look alike come from different tables or passages of the source.

Common to all, as to assay: Radiolabeled ATP kinase assay, panel of 371 kinases (Table S6)
Holding throughout (assay type): biochemical

Experiment [1] concerns the target T1, panel of 371 human kinases (Homo sapiens, UniProt O60285).
T1 construct: purchased Reaction Biology Corp
The settings on record: ARK5/NUAK1; 0.1 μM; 10 μM ATP; read-out: % Enzyme Activity (relative to DMSO controls). The source says: (§1) ; FIG. 38C). […]. Further targeted analyses, such as genetic knock-down or knock-out, may be warranted to parse the role of these additional kinases in our model of neurodegeneration.

Experiment [2] addresses T2, panel of 371 human kinases (Homo sapiens, UniProt Q09013).
T2 construct: purchased Reaction Biology Corp
The settings on record: DMPK; 0.1 μM; 10 μM ATP; read-out: % Enzyme Activity (relative to DMSO controls).
Description: as §1

Experiment [3] addresses T3, panel of 371 human kinases (Homo sapiens, UniProt Q12851).
T3 construct: purchased Reaction Biology Corp
T3 sequence (Q12851 1-820): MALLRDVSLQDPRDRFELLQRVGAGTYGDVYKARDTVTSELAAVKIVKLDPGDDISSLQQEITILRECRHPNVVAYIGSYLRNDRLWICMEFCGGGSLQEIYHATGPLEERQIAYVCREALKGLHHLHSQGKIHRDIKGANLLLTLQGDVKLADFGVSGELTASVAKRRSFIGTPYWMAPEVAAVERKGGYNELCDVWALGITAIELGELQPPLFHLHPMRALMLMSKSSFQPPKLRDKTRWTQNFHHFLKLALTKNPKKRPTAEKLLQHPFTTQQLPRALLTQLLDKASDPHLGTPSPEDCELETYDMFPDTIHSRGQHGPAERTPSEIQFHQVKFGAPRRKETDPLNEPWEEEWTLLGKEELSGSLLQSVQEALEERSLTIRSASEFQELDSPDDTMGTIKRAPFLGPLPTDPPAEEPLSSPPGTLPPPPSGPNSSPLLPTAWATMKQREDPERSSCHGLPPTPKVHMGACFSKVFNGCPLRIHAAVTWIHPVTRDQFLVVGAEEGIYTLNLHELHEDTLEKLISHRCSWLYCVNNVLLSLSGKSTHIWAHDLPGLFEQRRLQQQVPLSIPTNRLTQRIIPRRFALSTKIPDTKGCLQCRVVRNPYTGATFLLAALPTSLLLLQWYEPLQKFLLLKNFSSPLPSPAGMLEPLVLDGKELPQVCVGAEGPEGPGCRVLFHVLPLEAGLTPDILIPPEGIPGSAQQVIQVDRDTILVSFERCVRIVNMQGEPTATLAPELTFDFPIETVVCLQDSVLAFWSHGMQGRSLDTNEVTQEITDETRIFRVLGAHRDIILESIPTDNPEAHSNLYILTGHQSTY
To be noted: for remaining activity at 0.1 µM: GCK/MAP4K2, 10 μM ATP, read-out: % Enzyme Activity (relative to DMSO controls).
Description: as §1

Experiment [4] addresses T4, panel of 371 human kinases (Homo sapiens, UniProt P29323).
T4 construct: purchased Reaction Biology Corp
To be noted: EPHB2; 0.1 μM; 10 μM ATP; read-out: % Enzyme Activity (relative to DMSO controls).
Description: as §1

For experiment [5], the target named is T5, panel of 371 human kinases (Homo sapiens, UniProt Q9UK32).
T5 construct: purchased Reaction Biology Corp
The settings on record: RSK4; 0.1 μM; 10 μM ATP; read-out: % Enzyme Activity (relative to DMSO controls).
Description: as §1

Experiment [6] concerns the target T6, panel of 371 human kinases (Homo sapiens, UniProt P49760).
T6 construct: purchased Reaction Biology Corp
The settings on record: CLK2; 0.1 μM; 10 μM ATP; read-out: % Enzyme Activity (relative to DMSO controls).
Description: as §1

Experiment [7] deals with T7, panel of 371 human kinases (Homo sapiens, UniProt Q86SG6).
T7 construct: purchased Reaction Biology Corp
The settings on record: NEK8; 0.1 μM; 10 μM ATP; read-out: % Enzyme Activity (relative to DMSO controls).
Description: as §1

Experiment [8] concerns the target T8, panel of 371 human kinases (Homo sapiens, UniProt P28482).
T8 construct: purchased Reaction Biology Corp
The settings on record: ERK2/MAPK1; 0.1 μM; 10 μM ATP; read-out: % Enzyme Activity (relative to DMSO controls).
Description: as §1

The target of experiment [9] is T9, panel of 371 human kinases (Homo sapiens, UniProt Q52WX2).
T9 construct: purchased Reaction Biology Corp
To be noted: SBK1; 0.1 μM; 10 μM ATP; read-out: % Enzyme Activity (relative to DMSO controls).
Description: as §1

Experiment [10] has as its target T10, panel of 371 human kinases (Homo sapiens, UniProt P08631).
T10 construct: purchased Reaction Biology Corp
To be noted: HCK; 0.1 μM; 10 μM ATP; read-out: % Enzyme Activity (relative to DMSO controls).
Description: as §1

Experiment [11] concerns the target T11, panel of 371 human kinases (Homo sapiens, UniProt P48729).
T11 construct: purchased Reaction Biology Corp
The settings on record: CK1a1; 0.1 μM; 10 μM ATP; read-out: % Enzyme Activity (relative to DMSO controls).
Description: as §1

Experiment [12] deals with T12, panel of 371 human kinases (Homo sapiens, UniProt Q96RR4).
T12 construct: purchased Reaction Biology Corp
The settings on record: CAMKK2; 0.1 μM; 10 μM ATP; read-out: % Enzyme Activity (relative to DMSO controls).
Description: as §1

For experiment [13], the target named is T13, panel of 371 human kinases (Homo sapiens, UniProt Q9UBE8).
T13 construct: purchased Reaction Biology Corp
The settings on record: NLK; 0.1 μM; 10 μM ATP; read-out: % Enzyme Activity (relative to DMSO controls).
Description: as §1

Experiment [14] concerns the target T14, panel of 371 human kinases (Homo sapiens, UniProt Q00526).
T14 construct: purchased Reaction Biology Corp
The settings on record: 0.1 μM, 10 μM ATP, read-out: % Enzyme Activity (relative to DMSO controls).
Description: as §1

Experiment [15] deals with T15, panel of 371 human kinases (Homo sapiens, UniProt Q96PN8).
T15 construct: purchased Reaction Biology Corp
To be noted: TSSK3/STK22C; 0.1 μM; 10 μM ATP; read-out: % Enzyme Activity (relative to DMSO controls).
Description: as §1

Experiment [16] deals with T16, panel of 371 human kinases (Homo sapiens, UniProt Q16816).
T16 construct: purchased Reaction Biology Corp
The settings on record: PHKg1; 0.1 μM; 10 μM ATP; read-out: % Enzyme Activity (relative to DMSO controls).
Description: as §1

Experiment [17] addresses T17, panel of 371 human kinases (Homo sapiens, UniProt P00533).
T17 construct: purchased Reaction Biology Corp
The settings on record: EGFR; 0.1 μM; 10 μM ATP; read-out: % Enzyme Activity (relative to DMSO controls).
Description: as §1

Experiment [18] has as its target T18, panel of 371 human kinases (Homo sapiens, UniProt P35626).
T18 construct: purchased Reaction Biology Corp
To be noted: GRK3; 0.1 μM; 10 μM ATP; read-out: % Enzyme Activity (relative to DMSO controls).
Description: as §1

T14 sequence (Q00526 whole entry): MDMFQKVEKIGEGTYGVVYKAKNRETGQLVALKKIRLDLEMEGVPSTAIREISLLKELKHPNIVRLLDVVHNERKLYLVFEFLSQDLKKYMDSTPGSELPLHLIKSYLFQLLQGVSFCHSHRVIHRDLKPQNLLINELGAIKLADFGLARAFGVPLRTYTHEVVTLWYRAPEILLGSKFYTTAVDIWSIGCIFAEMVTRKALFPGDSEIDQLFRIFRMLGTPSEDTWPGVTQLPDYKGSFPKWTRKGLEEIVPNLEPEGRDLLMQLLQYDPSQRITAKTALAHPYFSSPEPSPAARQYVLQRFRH
T6 sequence (P49760 whole entry): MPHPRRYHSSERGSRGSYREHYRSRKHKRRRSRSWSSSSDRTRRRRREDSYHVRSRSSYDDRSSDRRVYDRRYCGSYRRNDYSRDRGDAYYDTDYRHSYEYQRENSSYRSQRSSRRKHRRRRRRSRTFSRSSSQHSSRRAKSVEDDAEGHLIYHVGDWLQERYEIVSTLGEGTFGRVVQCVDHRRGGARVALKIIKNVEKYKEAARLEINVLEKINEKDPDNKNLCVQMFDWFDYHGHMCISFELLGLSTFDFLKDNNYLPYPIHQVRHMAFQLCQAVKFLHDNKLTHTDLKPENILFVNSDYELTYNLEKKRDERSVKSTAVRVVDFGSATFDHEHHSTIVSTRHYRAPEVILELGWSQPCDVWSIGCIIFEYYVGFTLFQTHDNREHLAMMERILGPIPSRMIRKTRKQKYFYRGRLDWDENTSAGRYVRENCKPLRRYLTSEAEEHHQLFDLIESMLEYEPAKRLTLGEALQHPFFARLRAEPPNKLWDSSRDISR
T4 sequence (P29323 19-1055): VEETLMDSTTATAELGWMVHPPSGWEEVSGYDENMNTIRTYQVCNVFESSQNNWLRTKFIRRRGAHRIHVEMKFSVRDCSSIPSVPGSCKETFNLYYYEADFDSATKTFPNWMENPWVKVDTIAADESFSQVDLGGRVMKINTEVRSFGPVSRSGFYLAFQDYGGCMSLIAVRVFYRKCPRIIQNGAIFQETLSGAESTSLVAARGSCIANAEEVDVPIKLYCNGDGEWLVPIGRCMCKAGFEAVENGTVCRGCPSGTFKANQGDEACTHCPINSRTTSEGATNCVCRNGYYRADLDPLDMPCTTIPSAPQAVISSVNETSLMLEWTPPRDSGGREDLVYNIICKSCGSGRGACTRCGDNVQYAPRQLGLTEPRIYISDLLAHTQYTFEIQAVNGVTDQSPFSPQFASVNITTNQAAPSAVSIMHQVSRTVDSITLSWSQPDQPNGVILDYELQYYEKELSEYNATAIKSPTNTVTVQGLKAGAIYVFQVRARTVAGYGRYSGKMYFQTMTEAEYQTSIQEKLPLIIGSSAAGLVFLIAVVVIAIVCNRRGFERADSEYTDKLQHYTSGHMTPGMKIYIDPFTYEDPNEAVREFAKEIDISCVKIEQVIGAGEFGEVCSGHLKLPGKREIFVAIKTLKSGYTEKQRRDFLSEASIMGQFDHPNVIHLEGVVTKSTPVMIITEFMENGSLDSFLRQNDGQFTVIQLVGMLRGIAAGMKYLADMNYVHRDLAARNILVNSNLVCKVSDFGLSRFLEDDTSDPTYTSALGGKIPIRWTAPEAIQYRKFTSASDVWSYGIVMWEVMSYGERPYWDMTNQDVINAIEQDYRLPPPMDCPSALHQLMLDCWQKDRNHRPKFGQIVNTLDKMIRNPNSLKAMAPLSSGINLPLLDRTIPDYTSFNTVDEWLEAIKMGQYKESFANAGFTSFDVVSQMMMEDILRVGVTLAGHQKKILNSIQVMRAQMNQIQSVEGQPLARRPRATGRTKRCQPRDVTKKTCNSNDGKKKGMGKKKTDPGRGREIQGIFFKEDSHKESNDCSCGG
T13 sequence (Q9UBE8 whole entry): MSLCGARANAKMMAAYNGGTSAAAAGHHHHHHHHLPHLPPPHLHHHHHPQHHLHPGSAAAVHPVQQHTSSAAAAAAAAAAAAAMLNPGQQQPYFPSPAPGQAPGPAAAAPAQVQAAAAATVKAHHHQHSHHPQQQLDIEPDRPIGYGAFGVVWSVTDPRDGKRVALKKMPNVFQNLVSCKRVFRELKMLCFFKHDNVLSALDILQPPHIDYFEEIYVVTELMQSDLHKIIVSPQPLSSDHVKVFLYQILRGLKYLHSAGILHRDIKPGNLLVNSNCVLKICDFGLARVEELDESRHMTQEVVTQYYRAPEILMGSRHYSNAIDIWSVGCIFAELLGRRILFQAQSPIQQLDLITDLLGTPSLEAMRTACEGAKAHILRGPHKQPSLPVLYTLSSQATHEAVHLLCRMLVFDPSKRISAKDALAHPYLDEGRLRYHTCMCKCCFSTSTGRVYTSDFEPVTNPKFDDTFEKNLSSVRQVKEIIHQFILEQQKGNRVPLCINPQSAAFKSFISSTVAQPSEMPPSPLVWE
T9 sequence (Q52WX2 whole entry): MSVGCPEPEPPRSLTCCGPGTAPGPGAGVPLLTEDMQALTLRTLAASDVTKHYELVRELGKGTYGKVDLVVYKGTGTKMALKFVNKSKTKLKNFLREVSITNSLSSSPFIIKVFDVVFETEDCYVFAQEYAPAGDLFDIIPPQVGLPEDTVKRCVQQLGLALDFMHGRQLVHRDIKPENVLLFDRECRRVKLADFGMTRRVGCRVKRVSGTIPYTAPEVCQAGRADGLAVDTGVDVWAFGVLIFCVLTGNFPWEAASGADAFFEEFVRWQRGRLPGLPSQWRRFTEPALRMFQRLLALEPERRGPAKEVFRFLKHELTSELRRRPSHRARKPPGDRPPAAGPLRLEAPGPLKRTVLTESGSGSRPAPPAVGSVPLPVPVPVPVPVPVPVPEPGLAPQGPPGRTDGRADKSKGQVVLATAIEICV
T2 sequence (Q09013 whole entry): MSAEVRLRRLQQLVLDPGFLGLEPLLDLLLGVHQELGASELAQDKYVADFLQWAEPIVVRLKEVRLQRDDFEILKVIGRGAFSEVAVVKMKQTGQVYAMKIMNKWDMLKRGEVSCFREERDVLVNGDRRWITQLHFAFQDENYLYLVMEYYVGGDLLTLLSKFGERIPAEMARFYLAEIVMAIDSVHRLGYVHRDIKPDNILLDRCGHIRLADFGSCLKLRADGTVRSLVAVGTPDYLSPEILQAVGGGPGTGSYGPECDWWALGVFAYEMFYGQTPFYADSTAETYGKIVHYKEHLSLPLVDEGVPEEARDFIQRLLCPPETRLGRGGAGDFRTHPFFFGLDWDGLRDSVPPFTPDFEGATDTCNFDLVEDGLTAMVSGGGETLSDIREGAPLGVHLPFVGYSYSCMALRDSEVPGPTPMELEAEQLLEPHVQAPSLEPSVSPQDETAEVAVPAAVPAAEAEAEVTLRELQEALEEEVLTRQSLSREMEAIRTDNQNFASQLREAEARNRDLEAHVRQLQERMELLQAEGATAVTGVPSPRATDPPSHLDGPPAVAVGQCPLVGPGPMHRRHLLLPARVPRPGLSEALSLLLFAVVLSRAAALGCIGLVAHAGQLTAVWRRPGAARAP
T16 sequence (Q16816 whole entry): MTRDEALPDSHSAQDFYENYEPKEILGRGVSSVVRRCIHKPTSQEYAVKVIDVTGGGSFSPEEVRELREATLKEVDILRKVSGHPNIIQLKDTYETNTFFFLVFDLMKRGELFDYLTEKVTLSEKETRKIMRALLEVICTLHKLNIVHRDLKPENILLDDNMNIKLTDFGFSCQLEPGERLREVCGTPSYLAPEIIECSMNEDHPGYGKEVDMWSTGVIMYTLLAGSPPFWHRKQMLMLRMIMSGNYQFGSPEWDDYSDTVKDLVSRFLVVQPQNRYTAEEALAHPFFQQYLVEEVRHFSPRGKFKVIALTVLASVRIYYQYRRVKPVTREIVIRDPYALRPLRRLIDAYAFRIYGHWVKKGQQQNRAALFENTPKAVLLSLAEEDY
T7 sequence (Q86SG6 whole entry): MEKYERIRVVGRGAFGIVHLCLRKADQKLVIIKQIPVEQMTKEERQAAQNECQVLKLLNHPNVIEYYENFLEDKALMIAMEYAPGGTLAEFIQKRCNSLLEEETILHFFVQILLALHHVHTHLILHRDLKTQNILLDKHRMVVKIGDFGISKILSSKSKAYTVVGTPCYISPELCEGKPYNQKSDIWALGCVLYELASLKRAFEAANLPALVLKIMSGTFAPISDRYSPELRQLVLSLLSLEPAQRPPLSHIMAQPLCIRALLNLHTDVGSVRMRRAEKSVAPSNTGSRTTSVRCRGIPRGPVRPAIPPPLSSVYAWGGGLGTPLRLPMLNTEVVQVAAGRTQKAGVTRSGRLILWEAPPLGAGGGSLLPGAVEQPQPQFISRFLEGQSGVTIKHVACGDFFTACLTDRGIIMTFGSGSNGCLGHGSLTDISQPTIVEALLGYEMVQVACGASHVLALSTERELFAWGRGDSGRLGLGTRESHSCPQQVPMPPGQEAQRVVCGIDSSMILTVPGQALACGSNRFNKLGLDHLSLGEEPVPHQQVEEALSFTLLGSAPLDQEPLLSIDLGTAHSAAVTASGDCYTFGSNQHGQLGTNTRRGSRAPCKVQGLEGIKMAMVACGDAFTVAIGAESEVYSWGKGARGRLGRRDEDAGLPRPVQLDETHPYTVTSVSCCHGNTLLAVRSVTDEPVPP
T11 sequence (P48729 whole entry): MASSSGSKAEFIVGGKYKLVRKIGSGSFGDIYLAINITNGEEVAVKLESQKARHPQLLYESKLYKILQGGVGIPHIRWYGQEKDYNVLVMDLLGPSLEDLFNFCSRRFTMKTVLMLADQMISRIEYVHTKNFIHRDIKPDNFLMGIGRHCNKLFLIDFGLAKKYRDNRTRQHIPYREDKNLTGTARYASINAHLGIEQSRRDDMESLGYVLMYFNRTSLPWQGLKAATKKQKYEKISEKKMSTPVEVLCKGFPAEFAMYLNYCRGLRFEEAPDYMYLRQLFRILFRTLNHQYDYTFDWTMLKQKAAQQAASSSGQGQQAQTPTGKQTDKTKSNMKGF

Take `CN1CCN(Cc2ccc(-c3cnc4[nH]cc(-c5ccc6[nH]ccc6c5)c4c3)cc2)CC1` [Compound 1, 3-(1H-Indol-5-yl)-5-(4-((4-methylpiperazin-1-yl)methyl)phenyl)-1H-pyrrolo[2,3-b]pyridine, reference compound]: the remaining activity at 0.1 µM in experiment [1] is 26.9%; in experiment [2], 96.6%; in experiment [3], 63.6%; in experiment [4], 88.6%; in experiment [5] it was 83.5%; in experiment [6] it was 48.2%. Also, the remaining activity at 0.1 µM turned out to be 99.1% in experiment [7]; 104% in experiment [8]; 99% in experiment [9]; 110% in experiment [10]; 102% in [11]; 97.7% in experiment [12]. Besides, the remaining activity at 0.1 µM in [13] was determined as 101%; in experiment [14] (CDK3/cyclin E2), 92.6%; in experiment [14] (CDK3/cyclin E), 92.9%; in experiment [15], 146%; in [16], 37.6%; in [17], 103%. The remaining activity at 0.1 µM in experiment [18] is 106%.

On to `OCCN1CCN(Cc2ccc(-c3cnc4[nH]cc(-c5cccc(Cl)c5)c4c3)cc2)CC1` [Compound 12k, 2-(4-(4-(3-(3-Chlorophenyl)-1H-pyrrolo[2,3-b]pyridin-5-yl)benzyl)piperazin-1-yl)ethan-1-ol], for which the remaining activity at 0.1 µM in experiment [1] was determined as 14.4%; in experiment [2], 97.7%; in [3], 10.2%; in [4], 98.3%; in experiment [5], 41.2%; in [6], 55.8%. For the same molecule, the remaining activity at 0.1 µM amounted to 97.9% in [7]; 101% in [8]; 98.7% in [9]; 95.8% in experiment [10]; 91.6% in experiment [11]; 94.9% in experiment [12]. Moreover, the remaining activity at 0.1 µM is 94.3% in [13]; 90.2% in experiment [14] (CDK3/cyclin E2); 97% in [14] (CDK3/cyclin E); 129% in experiment [15]; 74.5% in experiment [16]; 96.2% in experiment [17]. Further, the remaining activity at 0.1 µM in experiment [18] worked out at 104%. In [3] (0.025 μM), the “fold change in GCK activity following 12k exposure relative to 1” value turned out to be 6.22 fold.
